Results from patent US11160814B1, “Methods of treatment for disease from coronavirus exposure” (Ensemble Group Holdings, priority 2020, dated 2021).

Tested on: SARS-CoV-2
Assay: Pirfenidone and nintedanib therapy during post-acute phase in patients with severe SARS2 lung damage (Example 3)
Format: in vivo, human
Settings: one patient
Text: Pirfenidone and Nintedanib therapy during the post-acute phase mitigates functional and structural lung loss, preserves lung function and structure, and can improve lung capacity and exertional tolerance in patients previously infected SARS2 with significant pulmonary functional and structural loss as a result of their severe infections. This transition period can be determined in any number of ways including but not limited to laboratory, blood serum, urine, fecal, sputum, bronchial lavage, imaging, genomic or tissue-based testing. These patients can also be characterized in one embodiment as those patients with prolonged hospitalization due to lung disease, prolonged ventilation, course of ECMO, high peaks during hospitalization 1.5 times above the upper of normal for LDH, or Ferritin, or CRP, >30% loss in pulmonary capacity or pulmonary reserve, significant scarring and/or fibrosis seen by CT imaging, MRI, PET imaging or chest x-ray, significant reductions in physiological and functional measures as assessed by the objective physiologic and functional assessments described above, and/or a progressive or worsening pattern of any of such measures over time. During this period, pharmacologic agents and combinations as disclosed herein can be administered to limit, contain, or restrain or reduce such damage and limit the progression of severe SARS2 associated lung damage as described above both physiologically functionally and structurally. A patient with severe clinical COVID symptoms and severe lung damage, and >40% loss of pulmonary reserve by objective testing was treated with pirfenidone starting 1 month after discharge. […] A similar patient was treated with a 50% loss of pulmonary reserve.

[1] = severe COVID, >40% loss of pulmonary reserve, treatment from 1 month after discharge, at 3 months

COC(=O)c1ccc2c(c1)NC(=O)/C2=C(\Nc1ccc(N(C)C(=O)CN2CCN(C)CC2)cc1)c1ccccc1 [nintedanib] was tested, and the “structural and physiologic declines” value (50% loss of pulmonary reserve, initiated two months post-discharge, at 4 months) was “stabilized and arrested”.
In the case of Cc1ccc(=O)n(-c2ccccc2)c1 [pirfenidone], the PFTs [1] is reported as “improvement” and the “progression of structural lung damage by high-resolution CT (HRCT) imaging” value [1] is reported as “reduction in progression”.
